ChEMBL document CHEMBL1148315, “Photoaffinity labeling of the anionic sites in Caco-2 cells mediating saturable transport of hydrophilic cations ranitidine and famotidine” (2004)

What was measured:
Assay type in all cases: functional, Homo sapiens
Caco-2 [1] = assay: Ability to increase the transepithelial electrical resistance across Caco-2 cell monolayer at 200 uM concentration
Caco-2 [2] = assay: Inhibition of apical to basolateral transport of Ranitidine (100 uM) across Caco-2 cell monolayer in the presence of 300 uM of compound
Caco-2 [3] = assay: Inhibition of Ranitidine transport across Caco-2 cell monolayer by the compound (200 uM) After photoactivation at 254 nM
Caco-2 [4] = assay: Inhibition of irreversible increase in transepithelial electrical resistance across Caco-2 cell monolayer by the compound in the presence of 5 mM of famotidine

**Q.** Which Increase (Caco-2 [1]) does the source give for `[N-]=[N+]=Nc1ccc(C(=O)NCCSCc2csc(NC(=N)N)n2)cc1` here?
**A.** Its Increase is 120%.

**Q.** How did the Inhibition (Caco-2 [2]) turn out when `CNC(=C[N+](=O)[O-])NCCSCc1ccc(CN(C)C)o1.[N-]=[N+]=Nc1ccc(C(=O)NCCSCc2csc(NC(=N)N)n2)cc1` was run?
**A.** The Inhibition was 40%.

**Q.** What about the Inhibition (Caco-2 [3]) of the same compound?
**A.** Its Inhibition is 35%.

**Q.** `N=C(N)Nc1nc(CSCCC(=N)NS(N)(=O)=O)cs1.[N-]=[N+]=Nc1ccc(C(=O)NCCSCc2csc(NC(=N)N)n2)cc1` was tested. Which Inhibition (Caco-2 [4]) did it give?
**A.** The Inhibition was 35%.
